Tests used:
[1] = Solubility of compound of Formula 1 in water and solvents of various compositions; assay type: physicochemical
Source text: Further, it was confirmed that the compound of Formula 1 has the property of reducing the pH of a solution while being dissolved in a solvent.

[2] = Change in API purity during preparation of freeze-drying formulation, UPLC; assay type: physicochemical; conditions: API powder before dissolving in the solvent composition
Description: A final API freeze-drying formulation was prepared as described in Table 16 below.
In order to confirm the change in purity of the API during the preparation of the final API freeze-drying formulation, the purity of the API powder before dissolving in the solvent composition, and the API purity during the preparation of the API mixture solution and after freeze-drying were measured using UPLC.

For `CC(C)[C@@]1(C(=O)N[C@H]2CC(=O)O[C@]2(O)CF)CC(c2nccc3ccccc23)=NO1` [Compound of Formula 1, (R)-N-((2S,3S)-2-(fluoromethyl)-2-hydroxy-5-oxotetrahydrofuran-3-yl)-5-isopropyl-3-(isoquinolin-1-yl)-4,5-dihydroisoxazol-5-carboxamide], the “solubility in acidic solvents” value ([1]; acidic solvents of pH 4 or less containing phosphate buffer, solubilizing agent and pH adjusting agent) was “hardly soluble”, the solubility in water ([1]; water) was “poorly soluble in water” and the “solubility in weak acidic and basic solvents” value ([1]; weak acidic solvents of pH 6 or more and basic solvents of pH 7.5 or more) was “dissolved well”. For the same compound, the “Purity (%)” value [2] was 98.6%.

Reference: US20250152576A1, “INJECTABLE FORMULATION COMPRISING ISOXAZOLINE DERIVATIVE AND METHOD FOR PREPARING SAME” (LG CHEM, LTD., priority 2022, published 2025)
